According to paper PMC6128854 (Scientific Reports, 2018):

Tested on: high voltage-activated (HVA) calcium channel currents in rat DRG neurons
Assay type: cell-based

In the case of ω-agatoxin, the “further inhibition of the residual Ba2+ currents” value is reported as 20%.
